Data: patent US7893074B2, “2, 4-pyrimidinediamines useful in the treatment of neoplastic diseases, inflammatory and immune system disorders” (Novartis AG, priority 2003, dated 2011)
Like-named read-outs stand apart in the source and are kept apart here.

Experiments:
[1] = target: Focal Adhesion Kinase (FAK) (Homo sapiens, UniProt Q05397); test: FAK assay system (Focal Adhesion Kinase inhibition); format: biochemical
[2] = system: Mouse mammary carcinoma 4T1 cells; test: Anchorage-independent tumor cell growth assay; format: cell-based
Protocol: Cells are cultured for 2 h and inhibitors are added at various concentrations in a final concentration of 0.1% DMSO. After 48 h, cell growth is assayed with the cell counting kit-8 (Wako Pure Chemical), which uses a water soluble tetrazolium salt WST8. Twenty μL of the reagent is added into each well and cells are further cultured for 2 h. The optical density is measured at 450 nm.

[3] = target: FAK (Mus musculus, UniProt P34152); test: Phos IC50 (phosphorylation); format: cell-based
Sequence of FAK (P34152 2-1052): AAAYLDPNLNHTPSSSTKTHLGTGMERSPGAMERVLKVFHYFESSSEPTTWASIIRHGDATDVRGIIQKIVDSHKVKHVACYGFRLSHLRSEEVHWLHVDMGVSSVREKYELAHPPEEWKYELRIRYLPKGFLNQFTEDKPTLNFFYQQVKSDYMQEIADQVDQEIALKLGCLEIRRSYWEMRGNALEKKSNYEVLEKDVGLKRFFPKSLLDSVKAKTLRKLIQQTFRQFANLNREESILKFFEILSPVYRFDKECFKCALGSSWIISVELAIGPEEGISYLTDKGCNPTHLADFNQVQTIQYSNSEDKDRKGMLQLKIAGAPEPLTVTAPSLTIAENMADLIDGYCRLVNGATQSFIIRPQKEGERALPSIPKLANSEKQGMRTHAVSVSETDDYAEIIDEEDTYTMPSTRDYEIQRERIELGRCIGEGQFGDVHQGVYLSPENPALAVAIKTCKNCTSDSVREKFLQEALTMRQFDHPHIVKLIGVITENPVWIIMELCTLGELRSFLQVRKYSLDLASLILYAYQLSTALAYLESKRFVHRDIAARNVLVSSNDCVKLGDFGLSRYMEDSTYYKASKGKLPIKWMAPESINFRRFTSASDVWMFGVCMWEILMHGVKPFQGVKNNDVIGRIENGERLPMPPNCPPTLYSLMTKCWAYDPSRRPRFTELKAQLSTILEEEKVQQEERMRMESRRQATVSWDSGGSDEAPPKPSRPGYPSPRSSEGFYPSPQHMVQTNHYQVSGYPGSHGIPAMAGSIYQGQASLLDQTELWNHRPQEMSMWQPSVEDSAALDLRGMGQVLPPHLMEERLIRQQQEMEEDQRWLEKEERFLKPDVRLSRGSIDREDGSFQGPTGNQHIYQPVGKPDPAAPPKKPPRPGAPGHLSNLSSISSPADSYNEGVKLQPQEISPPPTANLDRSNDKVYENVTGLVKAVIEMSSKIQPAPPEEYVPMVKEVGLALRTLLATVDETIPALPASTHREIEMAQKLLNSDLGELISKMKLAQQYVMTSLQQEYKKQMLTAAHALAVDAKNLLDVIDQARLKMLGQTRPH

Sequence of Focal Adhesion Kinase (FAK) (Q05397 384-706): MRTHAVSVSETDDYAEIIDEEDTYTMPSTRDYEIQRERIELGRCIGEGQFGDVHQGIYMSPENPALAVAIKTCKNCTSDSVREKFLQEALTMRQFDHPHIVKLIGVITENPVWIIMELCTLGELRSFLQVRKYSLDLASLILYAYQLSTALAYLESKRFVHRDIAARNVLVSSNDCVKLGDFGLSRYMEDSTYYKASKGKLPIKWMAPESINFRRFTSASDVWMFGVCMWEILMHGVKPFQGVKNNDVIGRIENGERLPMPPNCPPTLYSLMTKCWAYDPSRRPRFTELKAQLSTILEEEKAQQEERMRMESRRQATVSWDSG

SMILES	IC50 ([1]; read-out: FAK IC50) [nM]	IC50 ([2]; Mus musculus, 4T1) [nM]	IC50 ([1]; FAK IC50) [nM]	IC50 [2] [nM]	IC50 [3] [nM]
COc1cc(N2CCN3CCOC[C@H]3C2)ccc1Nc1ncc(Cl)c(Nc2cccc3c2C(=O)N(C)C3)n1 [Example 12-6]	2.6	–	–	–	–
CCN1Cc2cccc(Nc3nc(Nc4ccc(N5CCN(C)CC5)cc4OC)ncc3Cl)c2C1=O [Example 13-1]	65	810	–	–	–
CNC(=O)c1cc(F)c(F)cc1Nc1nc(Nc2ccc(N3CCOCC3)cc2OC)ncc1Cl [Example 14-3]	–	1010	30	–	–
COc1cc(N2CCOCC2)ccc1Nc1ncc(Cl)c(Nc2cccc3c2C(=O)CC3)n1 [Example 14-4]	18	540	–	–	–
COc1cc(N2CCOCC2)ccc1Nc1ncc(Cl)c(Nc2ccccc2C(=O)N2CCCC2)n1 [Example 14-6]	63	1110	–	–	–
CNC(=O)c1cc(N2CCCC2)ccc1Nc1nc(Nc2ccc(N3CCN(C)CC3)cc2OC)ncc1Cl [Example 15-1]	15	470	–	–	–
CNC(=O)c1cc(N2CCCC2)ccc1Nc1nc(Nc2ccc(N3CCOCC3)cc2OC)ncc1Cl [Example 15-3]	–	–	–	1670	–
COc1cc(N2CCCC(C(N)=O)C2)ccc1Nc1ncc(Cl)c(Nc2ccccc2S(=O)(=O)NC(C)C)n1 (centres unmarked) [Example 19-19]	5.7	400	–	–	–
COc1cc(OCC(C)(C)CN(C)C)ccc1Nc1ncc(Cl)c(Nc2ccccc2S(=O)(=O)NC(C)C)n1 [Example 19-24]	–	120	1.8	–	–
COc1cc(OCCN2CCOCC2)ccc1Nc1ncc(Cl)c(Nc2ccccc2S(=O)(=O)NC(C)C)n1 [Example 19-29]	1.9	–	–	–	–
CNS(=O)(=O)c1ccccc1Nc1nc(Nc2cc(OC)c(N3CCOCC3)cc2OC)ncc1Cl [Example 20-12]	9.5	–	–	–	–
CNS(=O)(=O)c1ccccc1Nc1nc(Nc2cc(OC)c(N3CCN(C)CC3)cc2OC)ncc1Cl [Example 20-13]	6.3	40	–	–	–
CCCOc1cc(N2CCN(C)CC2)ccc1Nc1ncc(Cl)c(Nc2ccccc2S(=O)(=O)NC)n1 [Example 20-14]	33	320	–	–	–
CNS(=O)(=O)c1ccccc1Nc1nc(Nc2ccc(N3CCC(N4CCN(C)CC4)CC3)cc2OC)ncc1Cl [Example 20-16]	7.5	60	–	–	–
CNC1CCN(c2ccc(Nc3ncc(Cl)c(Nc4ccccc4S(=O)(=O)NC)n3)c(OC)c2)C1 (centres unmarked) [Example 20-17]	2	140	–	–	–
CNS(=O)(=O)c1ccccc1Nc1nc(Nc2cc(N3CCC(N4CCN(C)CC4)CC3)ccc2OC)ncc1Cl [Example 20-18]	15	810	–	–	–
CNS(=O)(=O)c1ccccc1Nc1nc(Nc2cc(N3CCC(O)CC3)ccc2OC)ncc1Cl [Example 20-19]	28	210	–	–	–
CNS(=O)(=O)c1ccccc1Nc1nc(Nc2ccc(OC3CCN(C)C3)cc2OC)ncc1Cl (centres unmarked) [Example 20-29]	–	–	–	50	–
CNS(=O)(=O)c1ccccc1Nc1nc(Nc2cc(N3CCN(C)CC3)ccc2OC)ncc1Cl [Example 20-31]	39	500	–	–	–
CNS(=O)(=O)c1ccccc1Nc1nc(Nc2cc(N3CCC(N4CCCCC4)CC3)ccc2OC)ncc1Cl [Example 20-32]	13	110	–	–	–
CNC1CCN(c2ccc(OC)c(Nc3ncc(Cl)c(Nc4ccccc4S(=O)(=O)NC)n3)c2)C1 (centres unmarked) [Example 20-33]	2.5	380	–	–	–
CCC(CC)NS(=O)(=O)c1ccccc1Nc1nc(Nc2ccc(OC3CCN(C)C3)cc2OC)ncc1Cl (centres unmarked) [Example 23-7]	–	–	–	840	–
COc1cc(N2CCOCC2)ccc1Nc1ncc(Cl)c(Nc2ccccc2S(=O)(=O)NC2CCCC2)n1 [Example 25-1]	–	1000	8.5	–	–
CCCS(=O)(=O)c1ccccc1Nc1nc(Nc2ccc(N3CCCC(C(N)=O)C3)cc2OC)ncc1Cl (centres unmarked) [Example 26-14]	5	190	–	–	–
CCCS(=O)(=O)c1ccccc1Nc1nc(Nc2ccc(N3CCN(CC(=O)NC(C)C)CC3)cc2OC)ncc1Cl [Example 26-21]	1.1	–	–	–	100
COc1cc(N2CCC(N3CCN(C)CC3)CC2)ccc1Nc1ncc(Cl)c(Nc2ccccc2S(=O)(=O)C(C)C)n1 [Example 28-5]	–	120	–	–	100
COc1cc([N+](=O)[O-])ccc1Nc1ncc(Cl)c(Nc2ccccc2S(=O)(=O)C(C)C)n1 [Example 28-7]	–	> 10000	47	–	–
CCN1CCN(c2ccc(Nc3ncc(Cl)c(Nc4ccccc4S(=O)(=O)C(C)C)n3)c(OC)c2)CC1 [Example 28-12]	3.2	430	–	–	–
COc1cc(OC2CCN(C)CC2)ccc1Nc1ncc(Cl)c(Nc2ccccc2S(=O)(=O)C(C)C)n1 [Example 28-19]	–	–	–	140	–
CNC1CCN(c2ccc(Nc3ncc(Cl)c(Nc4ccccc4S(=O)(=O)C(C)C)n3)c(OC)c2)CC1 [Example 28-20]	4.4	–	–	–	[…]
